Assay [1] concerns the target human KHK-A (Homo sapiens (Human), UniProt P50053). The assay is described as follows: KHK Biochemical Assay (IC50), ADP-Glo, KHK-A. Particulars: ADP-Glo; average of at least two separate assays. A digest of the protocol:
(§1)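 His-tagged enzyme expressed in BL21 (DE3), Ni-NTA purified. Compounds, serially diluted 1:3 in DMSO, pre-incubated 30 min with enzyme in 50 mM Hepes pH 7.4, 140 mM KCl, 5 mM MgCl2, 0.01% Triton-X, then ATP and fructose added; 4 h at room temperature. ADP formation read by ADP-Glo luminescence.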
(ADP-Glo first removes unused ATP, then detects ADP through luciferase.)

For assay [2], the target named is human KHK-C (Homo sapiens (Human), UniProt P50053). The assay can be described thus: KHK Biochemical Assay (IC50), ADP-Glo, KHK-C. Particulars: ADP-Glo; average of at least two separate assays. A digest of the protocol:
as §1

27 molecules from US12410160B2 (Gilead Sciences, Inc., priority 2021, dated 2025) can be followed below.

Broadly, the IC50 is the point on the concentration scale where inhibition reaches its midpoint. A high value points to weaker potency in that assay.

Chain of human KHK-C (P50053 whole entry): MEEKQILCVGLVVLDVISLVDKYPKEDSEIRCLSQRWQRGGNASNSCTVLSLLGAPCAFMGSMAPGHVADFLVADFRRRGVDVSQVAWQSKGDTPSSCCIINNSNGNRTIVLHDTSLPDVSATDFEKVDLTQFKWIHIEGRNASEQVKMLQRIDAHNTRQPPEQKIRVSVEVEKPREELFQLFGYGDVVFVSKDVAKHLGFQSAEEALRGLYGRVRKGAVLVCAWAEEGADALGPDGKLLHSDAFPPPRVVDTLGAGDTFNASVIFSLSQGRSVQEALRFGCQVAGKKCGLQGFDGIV
Chain of human KHK-A (P50053 other isoform, or with tags, fused parts or gaps): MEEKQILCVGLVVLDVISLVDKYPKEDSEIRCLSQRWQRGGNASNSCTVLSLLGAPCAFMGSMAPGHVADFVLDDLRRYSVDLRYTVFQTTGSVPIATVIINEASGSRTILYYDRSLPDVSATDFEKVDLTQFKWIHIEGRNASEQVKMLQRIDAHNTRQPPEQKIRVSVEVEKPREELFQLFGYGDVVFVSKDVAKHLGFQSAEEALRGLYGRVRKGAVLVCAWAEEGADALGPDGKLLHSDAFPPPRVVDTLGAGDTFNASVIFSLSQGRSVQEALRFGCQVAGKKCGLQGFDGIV

Take `C[C@H]1CCN1c1nc2c(c(-c3ccc(C(N)=O)c(Cc4ccccc4)c3)n1)CCC2` [Example 841, (S)-2-benzyl-4-(2-(2-methylazetidin-1-yl)-6,7-dihydro-5H-cyclopenta[d]pyrimidin-4-yl)benzamide]: the 50% inhibitory concentration (IC50) in assay [1] amounted to 28.1 nM; in assay [2], 40.5 nM.
The like results for `C[C@H]1CCN1c1nc2c(c(-c3ccc(C(N)=O)c(SCc4ccccc4)c3)n1)CCC2` [Example 842, (S)-2-(benzylthio)-4-(2-(2-methylazetidin-1-yl)-6,7-dihydro-5H-cyclopenta[d]pyrimidin-4-yl)benzamide] were, in that order, 304 nM and 576 nM.
In the case of `C[C@H]1CCN1c1nc2c(c(-c3ccc(C(N)=O)c(C(=O)c4ccccc4)c3)n1)CCC2` [Example 843, (S)-2-benzoyl-4-(2-(2-methylazetidin-1-yl)-6,7-dihydro-5H-cyclopenta[d]pyrimidin-4-yl)benzamide], the figures for the half-maximal inhibitory concentration (IC50) in assay [1] and in assay [2] were 130 nM and 80.8 nM, respectively.
As to `COc1ccc(-c2nc(N3CC[C@@H]3C)nc3c2CCC3)cc1S(=N)(=O)CC1COCOC1` (stereo partly drawn) [Example 844, ((1,3-dioxan-5-yl)methyl)(imino)(2-methoxy-5-(2-((S)-2-methylazetidin-1-yl)-6,7-dihydro-5H-cyclopenta[d]pyrimidin-4-yl)phenyl)-λ^6-sulfanone], the IC50 is 2.5 nM in assay [1] and 8.5 nM in assay [2].
As for `COc1ccc(-c2nc(N3CC[C@@H]3C)nc3c2CCC3)cc1S(=N)(=O)c1ccc(C#N)c(Cl)c1` (stereo partly drawn) [Example 845, 2-chloro-4-(2-methoxy-5-(2-((S)-2-methylazetidin-1-yl)-6,7-dihydro-5H-cyclopenta[d]pyrimidin-4-yl)phenylsulfonimidoyl)benzonitrile], the concentration for half-maximal inhibition (IC50) in assay [1] was found to be 47 nM; in assay [2] it was 182 nM.
For `COc1ccc(-c2nc(N3CC[C@@H]3C)nc3c2CCC3)cc1S(=N)(=O)c1ccc(C#N)cc1C` (stereo partly drawn) [Example 846, 4-(2-methoxy-5-(2-((S)-2-methylazetidin-1-yl)-6,7-dihydro-5H-cyclopenta[d]pyrimidin-4-yl)phenylsulfonimidoyl)-3-methylbenzonitrile], the 50% inhibitory concentration (IC50) in assay [1] was determined as 33.6 nM; in assay [2] it was 46.1 nM.
For the molecule `C[C@H]1CCN1c1nc2c(c(-c3cccc(S(=N)(=O)c4ccc(C#N)cc4C4CC4)c3)n1)CCC2` (stereo partly drawn) [Example 847], the figures for the half-maximal inhibitory concentration (IC50) in assay [1] and in assay [2] were 200 nM and 118 nM, respectively.
On to `COc1cc(S(=N)(=O)c2cccc(-c3nc(N4CC[C@@H]4C)nc4c3CCC4)c2)ccc1C#N` (stereo partly drawn) [Example 848, 2-methoxy-4-(3-(2-((S)-2-methylazetidin-1-yl)-6,7-dihydro-5H-cyclopenta[d]pyrimidin-4-yl)phenylsulfonimidoyl)benzonitrile], for which the half-maximal inhibitory concentration (IC50) in assay [1] stood at 249 nM; in assay [2] it was 186 nM.
With `COc1ccc(-c2nc(N3CC[C@@H]3C)nc3c2CCC3)cc1S(=N)(=O)c1ccc(C#N)cc1Cl` (stereo partly drawn) [Example 849, 3-chloro-4-(2-methoxy-5-(2-((S)-2-methylazetidin-1-yl)-6,7-dihydro-5H-cyclopenta[d]pyrimidin-4-yl)phenylsulfonimidoyl)benzonitrile], the half-inhibitory concentration (IC50) is 16.3 nM in assay [1] and 25.4 nM in assay [2].
Take `COc1cc(S(=N)(=O)c2cc(-c3nc(N4CC[C@@H]4C)nc4c3CCC4)ccc2OC)ccc1C#N` (stereo partly drawn) [Example 850, 2-methoxy-4-(2-methoxy-5-(2-((S)-2-methylazetidin-1-yl)-6,7-dihydro-5H-cyclopenta[d]pyrimidin-4-yl)phenylsulfonimidoyl)benzonitrile]: the values for the IC50 in assay [1] and in assay [2] were 59.6 nM and 141 nM, respectively.
For `COc1ccc(-c2nc(N3CC[C@@H]3C)nc3c2CCC3)cc1S(=N)(=O)c1ccc(C#N)cc1` (stereo partly drawn) [Example 851, 4-(2-methoxy-5-(2-((S)-2-methylazetidin-1-yl)-6,7-dihydro-5H-cyclopenta[d]pyrimidin-4-yl)phenylsulfonimidoyl)benzonitrile] the same measures were 10.1 nM and 17.8 nM.
For `C[C@H]1CCN1c1nc2c(c(-c3ccc4[nH]cnc4c3)n1)CCC2` [Example 852, (S)-5-(2-(2-methylazetidin-1-yl)-6,7-dihydro-5H-cyclopenta[d]pyrimidin-4-yl)-1H-benzo[d]imidazole] the same measures were 21.8 nM and 18.9 nM.
For `C[C@H]1CCN1c1nc2c(c(-c3ccc4ncn(C)c4c3)n1)CCC2` [Example 853, (S)-1-methyl-6-(2-(2-methylazetidin-1-yl)-6,7-dihydro-5H-cyclopenta[d]pyrimidin-4-yl)-1H-benzo[d]imidazole] the same measures were 73.2 nM and 35.3 nM.
Consider `C[C@H]1CCN1c1nc2c(c(-c3ccc4c(c3)CCCCC4NS(C)(=O)=O)n1)CCC2` (stereo partly drawn) [Example 854, N-(2-(2-((S)-2-methylazetidin-1-yl)-6,7-dihydro-5H-cyclopenta[d]pyrimidin-4-yl)-6,7,8,9-tetrahydro-5H-benzo[7]annulen-5-yl)methanesulfonamide], for which the IC50 in assay [1] worked out at 543 nM; in assay [2] it was 442 nM.
The like results for `C[C@H]1CCN1c1nc2c(c(-c3ccc4c(c3)NC(=O)CNC4)n1)CCC2` [Example 855, (S)-8-(2-(2-methylazetidin-1-yl)-6,7-dihydro-5H-cyclopenta[d]pyrimidin-4-yl)-1,3,4,5-tetrahydro-2H-benzo[e][1,4]diazepin-2-one] were, in that order, 84.9 nM and 80.5 nM.
For `C[C@H]1CCN1c1nc2c(c(-c3ccc4c(c3)N(C)C(=O)CNC4)n1)CCC2` [Example 856, (S)-1-methyl-8-(2-(2-methylazetidin-1-yl)-6,7-dihydro-5H-cyclopenta[d]pyrimidin-4-yl)-1,3,4,5-tetrahydro-2H-benzo[e][1,4]diazepin-2-one], the IC50 in assay [1] turned out to be 143 nM; in assay [2], 175 nM.
The like results for `C[C@H]1CCN1c1nc2c(c(-c3nc4ccc(C(N)=O)cc4s3)n1)CCC2` [Example 857, (S)-2-(2-(2-methylazetidin-1-yl)-6,7-dihydro-5H-cyclopenta[d]pyrimidin-4-yl)benzo[d]thiazole-6-carboxamide] were, in that order, 141 nM and 149 nM.
Consider `C[C@H]1CCN1c1nc2c(c(-c3ccc4c(=O)[nH]c(=O)n(C)c4c3)n1)CCC2` [Example 858, (S)-1-methyl-7-(2-(2-methylazetidin-1-yl)-6,7-dihydro-5H-cyclopenta[d]pyrimidin-4-yl)quinazoline-2,4(1H,3H)-dione], for which the IC50 in assay [1] amounted to 18 nM; in assay [2], 43.6 nM.
On to `C[C@H]1CCN1c1nc2c(c(-c3ccc4c(c3)CCNC4C(F)(F)F)n1)CCC2` (stereo partly drawn) [Example 859, 6-(2-((S)-2-methylazetidin-1-yl)-6,7-dihydro-5H-cyclopenta[d]pyrimidin-4-yl)-1-(trifluoromethyl)-1,2,3,4-tetrahydroisoquinoline], for which the concentration for half-maximal inhibition (IC50) worked out at 434 nM in assay [1] and 301 nM in assay [2].
With `C[C@H]1CCN1c1nc2c(c(-c3cccc(S(C)(=N)=O)n3)n1)CCC2` (stereo partly drawn) [Example 860, imino(methyl)(6-(2-((S)-2-methylazetidin-1-yl)-6,7-dihydro-5H-cyclopenta[d]pyrimidin-4-yl)pyridin-2-yl)-λ^6-sulfanone], the half-inhibitory concentration (IC50) was determined as 191 nM in assay [1] and 224 nM in assay [2].
For `CCS(=N)(=O)c1cc(-c2nc(N3CC[C@@H]3C)nc3c2CCC3)ccc1OC` (stereo partly drawn) [Example 861, ethyl(imino)(2-methoxy-5-(2-((S)-2-methylazetidin-1-yl)-6,7-dihydro-5H-cyclopenta[d]pyrimidin-4-yl)phenyl)-λ^6-sulfanone] the same measures were 4.9 nM and 15.2 nM.
The like results for `COc1cc(-c2nc(N3CC[C@@H]3C)nc3c2CCC3)ccc1CS(N)(=O)=O` [Example 862, (S)-(2-methoxy-4-(2-(2-methylazetidin-1-yl)-6,7-dihydro-5H-cyclopenta[d]pyrimidin-4-yl)phenyl)methanesulfonamide] were, in that order, 48.1 nM and 76.4 nM.
For `C[C@H]1CCN1c1nc2c(c(-c3cccc(Sc4ccc(C#N)cc4)c3)n1)CCC2` [Example 863, (S)-4-((3-(2-(2-methylazetidin-1-yl)-6,7-dihydro-5H-cyclopenta[d]pyrimidin-4-yl)phenyl)thio)benzonitrile], the IC50 in assay [1] and in assay [2] was above 1000 nM each time.
As for `CCc1cc(-c2nc(N3CC[C@@H]3C)nc3c2CCC3)ccc1C1(N)COC1` [Example 864, (S)-3-(2-ethyl-4-(2-(2-methylazetidin-1-yl)-6,7-dihydro-5H-cyclopenta[d]pyrimidin-4-yl)phenyl)oxetan-3-amine], the IC50 in assay [1] was 10 nM; in assay [2], 6.3 nM.
For `C[C@H]1CCN1c1nc2c(c(-c3ccc4c(c3)C3(CCC3)CNC4=O)n1)CCC2` [Example 865, (S)-6′-(2-(2-methylazetidin-1-yl)-6,7-dihydro-5H-cyclopenta[d]pyrimidin-4-yl)-2′,3′-dihydro-1′H-spiro[cyclobutane-1,4′-isoquinolin]-1′-one] the same measures were 25.4 nM and 17.3 nM.
With `C[C@H]1CCN1c1nc2c(c(-c3cc4c(s3)C(=O)NC(C)(C)N4)n1)CCC2` [Example 866, (S)-2,2-dimethyl-6-(2-(2-methylazetidin-1-yl)-6,7-dihydro-5H-cyclopenta[d]pyrimidin-4-yl)-2,3-dihydrothieno[3,2-d]pyrimidin-4(1H)-one], the IC50 was 18.9 nM in assay [1] and 27.7 nM in assay [2].
With `C[C@H]1CCN1c1nc2c(c(-c3cc4c(N)n[nH]c4cn3)n1)CCC2` [Example 867, (S)-5-(2-(2-methylazetidin-1-yl)-6,7-dihydro-5H-cyclopenta[d]pyrimidin-4-yl)-1H-pyrazolo[3,4-c]pyridin-3-amine], the IC50 in assay [1] and in assay [2] was above 1000 nM in each case.
